According to article PMC7349657, “Efficient Targeted Degradation via Reversible and Irreversible Covalent PROTACs” (Journal of the American Chemical Society, 2020):

Assays:
[1] = tested on: C481S BTK; assay: In vitro kinase activity assay, C481S BTK (Nanosyn); conditions: 2 h preincubation
[2] = biological target: wild-type BTK (Homo sapiens, UniProt Q06187); assay: In vitro kinase activity assay, wild-type BTK (Nanosyn)
[3] = tested on: Ramos cells; assay: Label-free quantitative proteomics in Ramos cells; type: cell-based, Homo sapiens; conditions: 24 h; for Difference for 50 nM, C11orf98 / Difference for 100 nM, C11orf98: protein C11orf98 (E9PRG8); for Difference for 50 nM, MAP1LC3B;MAP1LC3B2;MAP1LC3A / Difference for 100 nM, MAP1LC3B;MAP1LC3B2;MAP1LC3A: proteins MAP1LC3B;MAP1LC3B2;MAP1LC3A; for Difference for 50 nM, MED19 / Difference for 100 nM, MED19: protein MED19 (A0JLT2); for Difference for 50 nM, MIF4GD / Difference for 100 nM, MIF4GD: protein MIF4GD (A9UHW6)
Protocol: To assess their proteomic selectivity, we incubated the PROTACs at 50 or 100 nM for 24 h with Ramos cells and followed the change in protein abundance via quantitative label-free proteomics (Figure 7, Supporting Figure 6). In agreement with the Western blot analysis, BTK was efficiently degraded by all the PROTACs we tested. […] Ramos cells were incubated with each PROTAC (50 nM) or DMSO in quadruplicates for 24 h and were then subjected to label-free quantitative proteomics analysis. Each graph plots the Log2 fold-change of proteins in the treated samples compared to the DMSO controls (x-axis) vs the −log(p-value) of that comparison in a Student’s t test (y-axis). […]
supplemented with 300 mM imidazole). The His tag was cleaved by the addition of TEV protease with concomitant dialysis overnight into cleavage buffer (50 mM Tris, pH 8.0, 0.5 mM EDTA, 1 mM DTT) at 4°C. The resulting soluble protein was passed ov er Ni -NTA beads to remove the protease and purified further by gel filtration on a HiLoad_16/60_Superdex_75 (GE Healthcare) column equilibrated with 20 mM Tris, pH 8.0, 50 mM NaCl, 1 mM DTT. The pure protein was then flash-frozen in liquid nitrogen and stored at −80°C.
C57BL/6 mice were purchased from Harlan (Rehovot, Israel) and maintained in a pathogen-free facility, experiments were carried on 8-12 weeks old male mice. All exp eriments with mice were approved by the Weizmann Institute Animal Care and Use Committee.
Splenic cells from C57BL/6 mice were isolated by forcing spleen tissue through mesh into PBS containing 2% fetal calf serum and 1 mM EDTA and red blood cells were depleted by lysis buffer. Cells were cultured in 96-well U-b ottom dishes (1x10^6 cells/m L in RPMI 10% […]
nM, 10 nM, 1 nM, 0.1 nM) for 24 hours at 37° C in 5% humidified CO2 incubator. Following a 24 hours incubation, cells were stimulated with anti-IgM overnight (5 µg/mL, Sigma-Aldrich). Subsequently, cells were stained with anti-B220 (clone RA3-6B2, Biolegend) and anti-CD86 (clone GL-1, Biolegend) antibodies for 30 minutes at 4°C. Single cell suspensions were analyzed by a flow cytometer (CytoFlex, Beckman Coulter).
Cells were analyzed by intensity based, label-free mass spectrometry based proteomics.
Sample preparation: 106 Ramos cells were treated in four replicates with either compound or DMSO for 24 hours. Cells were then washed twice by centrifuge at 200 rcf, 4°C for 5 minutes, removing the supernatant and washed with ice cold PBS. Samp les were then centrifuged at 200 rcf, 4°C for 5 minutes, then supernatant was removed and samples were frozen at -80°C.
Samples were dispersed in 75 µl of 50 mM ammonium bicarbonate, and transferred to 1.8 mL glass vials. 75 µl of 10% SDS in 50 mM ammonium bicarbonate were added and the samples were heated to 96° C for 6 minutes. The samples were sonicated thoroughly in a sonication bath until the DNA was sheared as indicated by reduction in viscosity to level enabling easy pipettation. Total protein concentration was estimated using BCA as say and 30 µg from each sample was taken for the experiment. […]
to 60°C for 45 minutes. The samples were cooled to room temperature, and 1/20 volume of […]
200 mM iodoacetamide was added and the reaction was performed in the dark for 30 minutes.
At this point, 1/10 volume of 12% phosphoric acid was added, followed by 6 volume […]
of 90% methanol in 50 mM ammonium bicarbonate. The samples were loaded on S-trap Micro […]
columns (Protify), and washed 3 times with 90% methanol in 50 mM ammonium bicarbonate.
The columns were spun without washing to dry the methanol. Then, 1 µg of trypsin (Promga) […]
in 20 µl of 50 mM ammonium bicarbonate was added to each column, and they were incubated […]
at 47° C for 1. 5 hours. Then, 40 µl of 50 mM ammonium bicarbonate was added and the sample […]
was eluted and another 0. 5 µg of trypsin was added, fo llowed by overnight incubation at 37 ° C.
The columns themselves were further eluted with 40 µl 0.2% formic acid in water, followed […]

[4] = 50 nM, Log2 fold-change vs DMSO
[5] = 100 nM, Log2 fold-change vs DMSO

Chain of wild-type BTK (Q06187 whole entry, species assumed): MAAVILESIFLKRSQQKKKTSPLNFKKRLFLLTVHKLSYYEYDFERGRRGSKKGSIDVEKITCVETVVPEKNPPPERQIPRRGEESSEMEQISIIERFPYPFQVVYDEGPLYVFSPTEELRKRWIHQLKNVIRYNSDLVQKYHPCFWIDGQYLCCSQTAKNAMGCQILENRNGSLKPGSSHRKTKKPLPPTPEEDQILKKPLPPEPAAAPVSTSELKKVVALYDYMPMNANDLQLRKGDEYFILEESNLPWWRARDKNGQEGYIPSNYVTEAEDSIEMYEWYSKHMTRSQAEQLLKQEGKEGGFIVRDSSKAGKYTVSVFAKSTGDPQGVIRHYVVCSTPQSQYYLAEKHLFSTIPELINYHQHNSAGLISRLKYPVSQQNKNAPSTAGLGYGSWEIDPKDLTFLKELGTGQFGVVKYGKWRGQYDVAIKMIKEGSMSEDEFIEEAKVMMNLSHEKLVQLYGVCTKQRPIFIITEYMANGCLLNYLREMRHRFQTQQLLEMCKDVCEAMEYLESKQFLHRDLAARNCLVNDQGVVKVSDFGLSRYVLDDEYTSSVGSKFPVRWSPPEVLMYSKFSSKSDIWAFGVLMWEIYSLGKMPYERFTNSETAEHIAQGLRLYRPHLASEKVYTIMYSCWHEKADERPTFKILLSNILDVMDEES

N#CC(=CCCCCOCCOCCOCCOCCOc1cccc2c1C(=O)N(C1CCC(=O)NC1=O)C2=O)C(=O)N1CCCC(n2nc(-c3ccc(Oc4ccccc4)cc3)c3c(N)ncnc32)C1 (stereo not shown) [RC-2]
fold reduction in potency, C481S vs wild-type BTK [1]: 68 fold
IC50 [2]: 1 nM
effect on off-targets LCK and PLK1 ([3]; 50 or 100 nM): not significantly affected
off-targets degraded (CSK, LYN, BLK) ([3]; 50 or 100 nM): degraded the known ibrutinib off-targets CSK, LYN, and BLK
Difference for 50 nM, C11orf98 [3, 4]: -0.2599
Difference for 100 nM, C11orf98 [3, 5]: 0.08889
Difference for 50 nM, ESYT2 ([3]; protein ESYT2 (A0FGR8), 50 nM, Log2 fold-change vs DMSO): 0.001137
Difference for 100 nM, ESYT2 ([3]; protein ESYT2 (A0FGR8), 100 nM, Log2 fold-change vs DMSO): -0.137
Difference for 50 nM, HAX1 ([3]; protein HAX1 (O00165), 50 nM, Log2 fold-change vs DMSO): -0.1673
Difference for 100 nM, HAX1 ([3]; protein HAX1 (O00165), 100 nM, Log2 fold-change vs DMSO): 0.4145
Difference for 50 nM, UNC119B ([3]; protein UNC119B (A6NIH7), 50 nM, Log2 fold-change vs DMSO): -0.2229
Difference for 100 nM, UNC119B ([3]; protein UNC119B (A6NIH7), 100 nM, Log2 fold-change vs DMSO): -0.06661
Difference for 50 nM, MAP1LC3B;MAP1LC3B2;MAP1LC3A [3, 4]: -0.1598
Difference for 100 nM, MAP1LC3B;MAP1LC3B2;MAP1LC3A [3, 5]: 0.1213

Nc1ncnc2c1c(-c1ccc(Oc3ccccc3)cc1)nn2C1CCCN(C(=O)C=CCOCCOCCOCCOCCOCCOc2cccc3c2C(=O)N(C2CCC(=O)NC2=O)C3=O)C1 (stereo not shown) [IR-1]
IC50 [2]: 2 nM
effect on off-targets LCK and PLK1 ([3]; 50 or 100 nM): not significantly affected
off-targets degraded (CSK, LYN, BLK) ([3]; 50 or 100 nM): degraded the known ibrutinib off-targets CSK, LYN, and BLK
Difference for 50 nM, C11orf98 [3, 4]: -0.4718
Difference for 100 nM, C11orf98 [3, 5]: 0.1735
Difference for 50 nM, MED19 [3, 4]: 0.1815
Difference for 100 nM, MED19 [3, 5]: -0.5554
Difference for 50 nM, MIF4GD [3, 4]: -0.2478
Difference for 100 nM, MIF4GD [3, 5]: -0.02661
Difference for 50 nM, MAP1LC3B;MAP1LC3B2;MAP1LC3A [3, 4]: 0.1478
Difference for 100 nM, MAP1LC3B;MAP1LC3B2;MAP1LC3A [3, 5]: 0.3122
Difference for 50 nM, RGPD3;RGPD4 ([3]; proteins RGPD3;RGPD4, 50 nM, Log2 fold-change vs DMSO): 0.0493
Difference for 100 nM, RGPD3;RGPD4 ([3]; proteins RGPD3;RGPD4, 100 nM, Log2 fold-change vs DMSO): 0.2554

Nc1ncnc2c1c(-c1ccc(Oc3ccccc3)cc1)nn2C1CCCN(C(=O)C=CCCCCOCCOCCOCCOCCOc2cccc3c2C(=O)N(C2CCC(=O)NC2=O)C3=O)C1 (stereo not shown) [IR-2]
fold reduction in potency, C481S vs wild-type BTK [1]: only slight sensitivity to the mutation
IC50 [2]: 14 nM
effect on off-targets LCK and PLK1 ([3]; 50 or 100 nM): not significantly affected
off-targets degraded (CSK, LYN, BLK) ([3]; 50 or 100 nM): degraded the known ibrutinib off-targets CSK, LYN, and BLK
Difference for 50 nM, C11orf98 [3, 4]: -0.1649
Difference for 100 nM, C11orf98 [3, 5]: -0.1913
Difference for 50 nM, MED19 [3, 4]: -0.004671
Difference for 100 nM, MED19 [3, 5]: 0.772
Difference for 50 nM, POM121C ([3]; protein POM121C, 50 nM, Log2 fold-change vs DMSO): 0.7405
Difference for 100 nM, POM121C ([3]; protein POM121C, 100 nM, Log2 fold-change vs DMSO): 0.8148
Difference for 50 nM, MAP1LC3B;MAP1LC3B2;MAP1LC3A [3, 4]: -0.3401
Difference for 100 nM, MAP1LC3B;MAP1LC3B2;MAP1LC3A [3, 5]: -0.09776
Difference for 50 nM, RASA4;RASA4B ([3]; proteins RASA4;RASA4B, 50 nM, Log2 fold-change vs DMSO): 0.1914
Difference for 100 nM, RASA4;RASA4B ([3]; proteins RASA4;RASA4B, 100 nM, Log2 fold-change vs DMSO): -0.07223

Nc1ncnc2c1c(-c1ccc(Oc3ccccc3)cc1)nn2C1CCCN(C(=O)CCCCCCOCCOCCOCCOCCOc2cccc3c2C(=O)N(C2CCC(=O)NC2=O)C3=O)C1 (stereo not shown) [NC-1]
fold reduction in potency, C481S vs wild-type BTK [1]: < 2 fold
IC50 [2]: 16 nM
BTK degradation (proteomics) ([3]; 50 or 100 nM): highest degradation potency against BTK
effect on off-targets LCK and PLK1 ([3]; 50 or 100 nM): not significantly affected
off-targets degraded (CSK, LYN, BLK) ([3]; 50 or 100 nM): degraded the known ibrutinib off-targets CSK, LYN, and BLK
Difference for 50 nM, MIF4GD [3, 4]: 0.1494
Difference for 100 nM, MIF4GD [3, 5]: 0.1711
Difference for 50 nM, NUDT19 ([3]; protein NUDT19 (A8MXV4), 50 nM, Log2 fold-change vs DMSO): 0.09117
Difference for 100 nM, NUDT19 ([3]; protein NUDT19 (A8MXV4), 100 nM, Log2 fold-change vs DMSO): 0.676
Difference for 50 nM, ZC3H12D ([3]; protein ZC3H12D (A2A288), 50 nM, Log2 fold-change vs DMSO): -0.03901
Difference for 100 nM, ZC3H12D ([3]; protein ZC3H12D (A2A288), 100 nM, Log2 fold-change vs DMSO): -0.07076
Difference for 50 nM, MAP1LC3B;MAP1LC3B2;MAP1LC3A [3, 4]: -0.1034
Difference for 100 nM, MAP1LC3B;MAP1LC3B2;MAP1LC3A [3, 5]: 0.1967
Difference for 50 nM, SNRPG;SNRPGP15 ([3]; proteins SNRPG;SNRPGP15, 50 nM, Log2 fold-change vs DMSO): -0.1263
Difference for 100 nM, SNRPG;SNRPGP15 ([3]; proteins SNRPG;SNRPGP15, 100 nM, Log2 fold-change vs DMSO): 0.0004592

CC(C)(C=C(C#N)C(=O)N1CCCC(n2nc(-c3ccc(Oc4ccccc4)cc3)c3c(N)ncnc32)C1)CCCOCCOCCOCCOCCOc1cccc2c1C(=O)N(C1CCC(=O)NC1=O)C2=O (stereo not shown) [RC-3]
fold reduction in potency, C481S vs wild-type BTK [1]: > 1000 fold
IC50 [2]: 0.4 nM
activity against noncovalent off-targets CSK and LYN ([3]; 50 or 100 nM): no activity
off-targets degraded (CSK, LYN, BLK) ([3]; 50 or 100 nM): the only significant off-target of RC-3 was BLK
Difference for 50 nM, MED19 [3, 4]: 0.1151
Difference for 100 nM, MED19 [3, 5]: 0.03137
Difference for 50 nM, SAC3D1 ([3]; protein SAC3D1 (A6NKF1), 50 nM, Log2 fold-change vs DMSO): -1.386
Difference for 100 nM, SAC3D1 ([3]; protein SAC3D1 (A6NKF1), 100 nM, Log2 fold-change vs DMSO): -0.4129
Difference for 50 nM, TRAPPC13 ([3]; protein TRAPPC13 (A5PLN9), 50 nM, Log2 fold-change vs DMSO): -0.1201
Difference for 100 nM, TRAPPC13 ([3]; protein TRAPPC13 (A5PLN9), 100 nM, Log2 fold-change vs DMSO): -0.2022
Difference for 50 nM, GPR89B;GPR89A ([3]; proteins GPR89B;GPR89A, 50 nM, Log2 fold-change vs DMSO): -0.3119
Difference for 100 nM, GPR89B;GPR89A ([3]; proteins GPR89B;GPR89A, 100 nM, Log2 fold-change vs DMSO): -0.8716
Difference for 50 nM, MAP1LC3B;MAP1LC3B2;MAP1LC3A [3, 4]: -0.1457
Difference for 100 nM, MAP1LC3B;MAP1LC3B2;MAP1LC3A [3, 5]: 0.000999
